Results reported in ChEMBL document CHEMBL1201862, “PubChem BioAssay data set” (2004).
Activity calls are given as the source filed them.

Legend:
Assay type in all cases: functional
[1] = A Cell Based Secondary Assay To Explore Cytotoxicity of Compounds that Sensitize Mycobacterium Tuberculosis to Beta-Lactam Antibiotics.
SUMO-activating enzyme = SUMO-activating enzyme (Homo sapiens, UniProt Q9UBT2); experiment: blockers of UBC9-mediated SUMO conjugation – biochemical, AlphaScreen, SUMOylation inhibitor project, confirmation (AID 2018)
[2] = viability of PTEN-deleted HCT116 cells – cell-based, HCT116 PTEN knockout, dose response (AID 1047);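 further: HCT116 colon tumor cells with PTEN knocked out; cells exposed to compound for 60 hours before readout; potency for loss of cell viability measured by luminescence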
[3] = target: T1, Calpain-2 catalytic subunit (Sus scrofa, UniProt P43367); experiment: m-calpain protease blockers, concentration series – biochemical, fluorogenic peptide substrate, dose response (AID 1420)
T1 sequence (P43367 whole entry): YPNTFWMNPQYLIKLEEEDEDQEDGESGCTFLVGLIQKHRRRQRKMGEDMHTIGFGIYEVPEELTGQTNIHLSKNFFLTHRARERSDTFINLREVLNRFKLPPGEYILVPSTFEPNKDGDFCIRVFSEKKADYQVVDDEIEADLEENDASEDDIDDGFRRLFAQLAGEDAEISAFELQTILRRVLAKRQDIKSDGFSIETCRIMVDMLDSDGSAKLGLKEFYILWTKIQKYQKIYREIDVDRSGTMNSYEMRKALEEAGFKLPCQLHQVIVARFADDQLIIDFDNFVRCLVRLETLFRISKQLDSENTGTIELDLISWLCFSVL

[4] = viability of HCT116 lacking mutant beta-catenin – cell-based, human colon tumor, dose response (AID 1045);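 further: HCT116 colon tumor cells with beta catenin knocked out; cells exposed to compound for 60 hours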
[5] = target: T2, Type-1 angiotensin II receptor (Homo sapiens, UniProt P30556); experiment: agonist activity at AGTR1 – cell-based, uHTS hits, selectivity assay for APJ receptor agonist project, dose response (AID 488865);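 further: beta-arrestin recruitment to AT1 measured by enzyme fragment complementation luminescence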
T2 sequence (P30556 whole entry): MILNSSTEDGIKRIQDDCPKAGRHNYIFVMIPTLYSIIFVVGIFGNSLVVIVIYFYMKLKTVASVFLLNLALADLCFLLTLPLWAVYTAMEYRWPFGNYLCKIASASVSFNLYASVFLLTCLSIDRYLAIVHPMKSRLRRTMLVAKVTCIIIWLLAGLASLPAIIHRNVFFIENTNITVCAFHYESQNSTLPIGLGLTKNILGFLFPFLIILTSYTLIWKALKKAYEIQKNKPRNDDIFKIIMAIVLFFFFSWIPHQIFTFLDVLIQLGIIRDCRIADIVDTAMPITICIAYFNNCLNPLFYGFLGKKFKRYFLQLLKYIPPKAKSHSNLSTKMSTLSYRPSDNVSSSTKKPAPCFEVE

Bcl-2-related protein A1 = target: T3, Bcl-2-related protein A1 (Mus musculus, UniProt Q07440);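 further: confirmatory dose–response counterscreen on Bfl-1, used to check hits from a UBC13 polyubiquitin inhibitor campaign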
T3 sequence (Q07440 whole entry): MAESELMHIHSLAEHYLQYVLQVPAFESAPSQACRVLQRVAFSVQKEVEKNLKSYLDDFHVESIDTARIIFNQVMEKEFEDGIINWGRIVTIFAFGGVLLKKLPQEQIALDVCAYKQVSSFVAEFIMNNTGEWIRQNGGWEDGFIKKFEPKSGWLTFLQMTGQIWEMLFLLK

[6] = target: T4, Ubiquitin-conjugating enzyme E2 N (Homo sapiens, UniProt P61088)
T4 sequence (P61088 whole entry): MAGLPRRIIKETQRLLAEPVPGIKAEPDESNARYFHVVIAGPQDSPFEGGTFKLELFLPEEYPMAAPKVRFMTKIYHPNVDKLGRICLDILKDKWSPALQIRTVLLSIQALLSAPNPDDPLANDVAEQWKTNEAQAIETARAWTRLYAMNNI

[7] = target: T4, Ubiquitin-conjugating enzyme E2 N; remark: listed apart in the source

SUMO-activating enzyme, sequence (Q9UBE0 whole entry): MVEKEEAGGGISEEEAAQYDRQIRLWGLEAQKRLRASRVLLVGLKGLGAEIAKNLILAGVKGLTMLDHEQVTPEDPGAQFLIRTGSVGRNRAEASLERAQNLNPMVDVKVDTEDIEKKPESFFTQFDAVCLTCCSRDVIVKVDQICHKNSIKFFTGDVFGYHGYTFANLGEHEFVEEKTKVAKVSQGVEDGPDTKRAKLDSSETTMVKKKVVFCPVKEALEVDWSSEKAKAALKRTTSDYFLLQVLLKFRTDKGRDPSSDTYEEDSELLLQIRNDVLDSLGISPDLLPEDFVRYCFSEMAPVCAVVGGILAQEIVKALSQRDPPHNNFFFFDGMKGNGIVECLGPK
SUMO-activating enzyme, sequence (Q9UBT2 whole entry): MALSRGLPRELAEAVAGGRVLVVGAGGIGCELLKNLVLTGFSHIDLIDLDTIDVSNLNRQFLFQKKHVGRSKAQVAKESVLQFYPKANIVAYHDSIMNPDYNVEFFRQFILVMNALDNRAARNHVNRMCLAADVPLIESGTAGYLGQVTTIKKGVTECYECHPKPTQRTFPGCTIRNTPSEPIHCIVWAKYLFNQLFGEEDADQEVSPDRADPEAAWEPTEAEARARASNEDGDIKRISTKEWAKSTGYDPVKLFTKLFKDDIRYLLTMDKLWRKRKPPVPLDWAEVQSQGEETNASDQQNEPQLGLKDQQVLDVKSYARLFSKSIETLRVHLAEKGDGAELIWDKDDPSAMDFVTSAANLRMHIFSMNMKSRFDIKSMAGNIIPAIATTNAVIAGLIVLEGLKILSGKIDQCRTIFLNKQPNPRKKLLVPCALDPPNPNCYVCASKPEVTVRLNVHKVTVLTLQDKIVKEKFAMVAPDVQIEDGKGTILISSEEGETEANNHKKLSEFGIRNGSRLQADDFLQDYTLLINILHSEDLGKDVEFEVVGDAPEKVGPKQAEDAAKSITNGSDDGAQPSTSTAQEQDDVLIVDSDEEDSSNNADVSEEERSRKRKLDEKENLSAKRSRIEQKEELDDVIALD

## O=C(Nc1nnc(-c2ccccc2SCc2ccccc2F)s1)Nc1ccccc1F
[1]
  CC50: 29.5 µM (active)
SUMO-activating enzyme
  IC50: 41.1 µM (active)
[2]
  EC50: 5.89 µM (active)
[3]
  IC50: > 50 µM (not active)
[4]
  EC50: 5.32 µM (active)

## CCOc1cc2[nH]c(=S)n(CCCC(=O)NCc3ccccn3)c(=O)c2cc1OCC
[5]
  EC50: > 100 µM (inactive)

## O=C(NCCCN1CCN(c2ccc(F)cc2)CC1)C1CCCN(c2ncnc3c2nc2n3CCCCC2)C1 (centres undefined)
Bcl-2-related protein A1
  IC50: > 20 µM (inactive)
[6]
  IC50: 8.08 µM (active)
[7]
  IC50: 3.64 µM (active)
